Measured values from ChEMBL document CHEMBL1201862, “PubChem BioAssay data set” (2004).
pIC50: −log10 of the molar value. The source made the active and inactive calls.

Assays:
[1] = PAX5 activity inhibitors, dose response, selectivity assay for PAX8 inhibitor project, cell-based, plate reader, dry powder samples (AID 743047); format: functional;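 note: HEK293 cells carrying a Pax5 driven CD19 promoter luciferase reporter; potency of inhibitors that lower reporter luminescence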
HEK293 = assay: inhibitors of LMP1-driven NF-kB reporter, dose response, cell-based, HEK293, luciferase, cherry-pick (AID 588343); format: functional; conditions: Homo sapiens
Paired box protein Pax-8 = Paired box protein Pax-8 (Homo sapiens, UniProt Q06710); assay: inhibitors of PAX8-driven TPO luciferase reporter, dose response, RMG-I cells, cherry-pick (AID 687027); format: functional, cell-based;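 note: luciferase reporter driven by Pax8 target thyroperoxidase promoter measured by SteadyGlo luminescence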
Paired box protein Pax-8, sequence (Q06710 whole entry): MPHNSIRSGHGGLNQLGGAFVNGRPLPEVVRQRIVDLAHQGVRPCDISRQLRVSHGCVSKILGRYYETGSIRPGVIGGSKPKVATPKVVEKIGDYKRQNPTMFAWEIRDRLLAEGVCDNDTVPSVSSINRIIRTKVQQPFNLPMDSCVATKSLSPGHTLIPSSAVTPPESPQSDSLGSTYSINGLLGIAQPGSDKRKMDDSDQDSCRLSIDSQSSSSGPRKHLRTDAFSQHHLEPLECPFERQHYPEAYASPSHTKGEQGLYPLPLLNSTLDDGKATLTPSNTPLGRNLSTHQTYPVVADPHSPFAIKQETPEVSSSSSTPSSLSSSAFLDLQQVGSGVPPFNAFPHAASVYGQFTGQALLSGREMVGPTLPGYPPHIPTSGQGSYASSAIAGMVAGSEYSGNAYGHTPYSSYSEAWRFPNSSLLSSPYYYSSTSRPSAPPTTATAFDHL

[2] = A549 cell cytotoxicity, dose response, cytotoxicity control, plate reader, cherry-pick, antagonist series (AID 743412); format: functional, cell-based
[3] = PAX2 cell-based inhibition, dose response, selectivity assay for PAX8 inhibitor project, plate reader, dry powder samples (AID 743048); format: functional;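 note: HEK293 cells carrying a WT1 promoter luciferase reporter driven by expressed Pax2; potency is for inhibition of Pax2 driven reporter signal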
[4] = cytotoxicity in COV362 ovarian cancer cells, dose response, cytotoxicity control for PAX8 inhibitor project, cell-based, plate reader, dry powder, SA12 (AID 743144); format: functional
[5] = MC4R antagonists, dose response, counter-screen for LGR2 antagonist project, cell-based, plate reader, cherry pick (AID 743444); format: functional;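 note: transfected HEK 293 cells stimulated with alpha-MSH peptide; potency of inhibitors of the alpha-MSH evoked signal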
[6] = cytotoxicity in OV-90 ovarian cancer cells, dose response, PAX8 inhibitor project, cell-based, plate reader, dry powder, SA8 (AID 743149); format: functional
[7] = IOSE-T80 ovarian epithelial cell cytotoxicity, dose response, cytotoxicity control for PAX8 inhibitor project, plate reader, dry powder samples (AID 743045); format: functional, cell-based
[8] = LGR2 antagonists, dose response, cell-based, HEK293, CRE-luciferase reporter, cherry pick, set 2 (AID 743343); format: functional;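 note: transfected cells were stimulated with diluted bursicon conditioned medium after compound addition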
[9] = control 3'UTR Renilla luciferase suppression, dose response, counter-screen for Shn3 inhibitor project, cell-based, Clone20-Shn3RL, cherry-picked (AID 624133); format: functional
[10] = Shn3 3'UTR reporter inhibitors, dose response, cell-based, Clone20 osteoblasts, firefly luciferase, cherry-picked (AID 624132); format: functional;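 note: firefly luciferase luminescence from reporter carrying the Shn3 3'UTR in osteoblasts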
[11] = cytotoxicity in COV434 cells, dose response, cytotoxicity control for PAX8 inhibitor project, cell-based, plate reader, dry powder, SA7 (AID 743145); format: functional
[12] = cytotoxicity dependent on PAX8, dose response, cell-based, plate reader, dry powder (AID 743049); format: functional
[13] = reduction of Shn3 3'UTR firefly luciferase signal, dose response, Schnurri-3 inhibitor project, cell-based, Clone20 osteoblasts, cherry-pick, set 2 (AID 720490); format: functional;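 note: actives lower the luminescence signal as inhibitors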
[14] = biological target: T1, DNA repair protein RAD52 homolog (Homo sapiens, UniProt P43351); format: functional, biochemical
T1 sequence (P43351 whole entry): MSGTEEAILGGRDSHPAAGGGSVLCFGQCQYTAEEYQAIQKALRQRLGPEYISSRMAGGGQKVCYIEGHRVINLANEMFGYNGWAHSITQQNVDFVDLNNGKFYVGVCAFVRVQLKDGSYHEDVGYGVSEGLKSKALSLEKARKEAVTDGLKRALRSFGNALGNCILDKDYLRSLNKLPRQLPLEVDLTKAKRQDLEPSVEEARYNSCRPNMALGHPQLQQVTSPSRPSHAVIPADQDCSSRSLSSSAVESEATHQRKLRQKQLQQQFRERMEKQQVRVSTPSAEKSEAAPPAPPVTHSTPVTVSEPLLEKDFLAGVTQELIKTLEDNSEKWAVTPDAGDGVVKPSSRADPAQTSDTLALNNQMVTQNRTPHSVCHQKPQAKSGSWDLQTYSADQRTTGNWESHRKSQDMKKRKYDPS

Protein S100-A4 = Protein S100-A4 (Homo sapiens, UniProt P26447); assay: S100A4-myosin IIA binding inhibitor potency, dose response, biochemical, fluorescence polarization, cherry-picked hits (AID 687001); format: functional
Protein S100-A4, sequence (P26447 whole entry): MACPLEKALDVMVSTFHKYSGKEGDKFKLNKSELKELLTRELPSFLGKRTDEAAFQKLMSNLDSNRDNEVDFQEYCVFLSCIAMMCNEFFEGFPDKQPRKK

[15] = biological target: T2, DNA repair and recombination protein RAD54-like (Homo sapiens, UniProt Q92698); assay: inhibitors of human RAD54 branch migration, confirmation, biochemical, fluorescence, cherry-picked samples, dose series (AID 651657); format: functional
T2 sequence (Q92698 whole entry): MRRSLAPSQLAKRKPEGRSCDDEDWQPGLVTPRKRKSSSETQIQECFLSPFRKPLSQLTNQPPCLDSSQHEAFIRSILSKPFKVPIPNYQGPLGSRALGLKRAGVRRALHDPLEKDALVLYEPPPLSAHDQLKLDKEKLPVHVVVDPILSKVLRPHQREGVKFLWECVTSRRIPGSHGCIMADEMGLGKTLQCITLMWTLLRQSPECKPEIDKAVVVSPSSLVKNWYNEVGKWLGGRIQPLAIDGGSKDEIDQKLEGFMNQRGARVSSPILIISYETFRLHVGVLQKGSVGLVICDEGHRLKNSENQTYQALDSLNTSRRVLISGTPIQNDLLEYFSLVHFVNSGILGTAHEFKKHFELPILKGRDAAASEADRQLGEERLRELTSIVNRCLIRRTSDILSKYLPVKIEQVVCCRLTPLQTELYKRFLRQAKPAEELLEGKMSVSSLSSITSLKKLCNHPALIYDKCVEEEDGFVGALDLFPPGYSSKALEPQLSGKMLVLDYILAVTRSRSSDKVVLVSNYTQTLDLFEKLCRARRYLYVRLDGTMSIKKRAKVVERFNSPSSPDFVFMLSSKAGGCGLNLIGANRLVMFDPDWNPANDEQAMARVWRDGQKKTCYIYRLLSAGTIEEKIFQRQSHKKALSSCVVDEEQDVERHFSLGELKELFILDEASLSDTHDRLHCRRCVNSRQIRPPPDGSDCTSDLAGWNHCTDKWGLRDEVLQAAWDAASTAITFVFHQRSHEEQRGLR

[16] = cytotoxicity in OVCAR8 ovarian cancer cells, dose response, PAX8 project, cell-based, plate reader, dry powder samples (AID 743197); format: functional; conditions: OVCAR-8
[17] = lymphoblastoid cell cytotoxicity, dose response, cytotoxicity control, plate reader, dry powder, set 2 (AID 624367); format: functional
[18] = HEK293 cell viability, dose response, counter-screen for EBV LMP1 inhibitor project, dry powder, set 2 (AID 624374); format: functional
[19] = A2780 ovarian cancer cell cytotoxicity, dose response, cytotoxicity control, plate reader, dry powder samples (AID 743046); format: functional, cell-based
[20] = biological target: Metabotropic glutamate receptor 3 (Rattus norvegicus, UniProt P31422); assay: mGlu3 NAM potency via calcium readout, dose response, mGlu3 NAM project, TREx293 cells, Galpha15, calcium flux (AID 651840); format: functional
Metabotropic glutamate receptor 3, sequence (P31422 whole entry): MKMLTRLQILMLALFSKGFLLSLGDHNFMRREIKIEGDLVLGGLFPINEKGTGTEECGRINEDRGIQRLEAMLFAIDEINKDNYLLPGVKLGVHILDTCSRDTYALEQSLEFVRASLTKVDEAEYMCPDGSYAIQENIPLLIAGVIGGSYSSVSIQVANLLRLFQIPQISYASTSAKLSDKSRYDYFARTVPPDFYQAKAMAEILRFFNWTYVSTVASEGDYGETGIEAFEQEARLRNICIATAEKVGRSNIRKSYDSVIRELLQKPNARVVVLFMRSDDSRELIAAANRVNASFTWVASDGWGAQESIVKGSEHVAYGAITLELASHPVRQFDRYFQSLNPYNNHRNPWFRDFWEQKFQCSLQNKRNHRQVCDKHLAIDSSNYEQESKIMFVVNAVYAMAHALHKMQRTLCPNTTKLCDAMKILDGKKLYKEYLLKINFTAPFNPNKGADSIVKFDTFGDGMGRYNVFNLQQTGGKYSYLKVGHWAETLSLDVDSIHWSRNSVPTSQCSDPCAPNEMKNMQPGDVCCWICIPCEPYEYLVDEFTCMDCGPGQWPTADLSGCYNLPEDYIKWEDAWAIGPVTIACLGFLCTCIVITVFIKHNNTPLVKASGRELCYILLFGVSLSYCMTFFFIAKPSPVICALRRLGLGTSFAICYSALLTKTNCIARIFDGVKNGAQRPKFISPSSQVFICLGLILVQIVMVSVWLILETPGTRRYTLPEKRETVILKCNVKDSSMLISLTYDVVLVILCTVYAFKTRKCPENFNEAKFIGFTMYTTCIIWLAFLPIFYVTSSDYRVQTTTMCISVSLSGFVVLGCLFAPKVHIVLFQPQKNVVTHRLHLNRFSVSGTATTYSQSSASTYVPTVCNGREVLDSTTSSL

[21] = biological target: Endoplasmic reticulum aminopeptidase 1 (Homo sapiens, UniProt Q9NZ08); assay: ERAP1 aminopeptidase inhibitors, dose response, biochemical, cherry-pick, set 2, plate reader (AID 743314)
Endoplasmic reticulum aminopeptidase 1, sequence (Q9NZ08 whole entry): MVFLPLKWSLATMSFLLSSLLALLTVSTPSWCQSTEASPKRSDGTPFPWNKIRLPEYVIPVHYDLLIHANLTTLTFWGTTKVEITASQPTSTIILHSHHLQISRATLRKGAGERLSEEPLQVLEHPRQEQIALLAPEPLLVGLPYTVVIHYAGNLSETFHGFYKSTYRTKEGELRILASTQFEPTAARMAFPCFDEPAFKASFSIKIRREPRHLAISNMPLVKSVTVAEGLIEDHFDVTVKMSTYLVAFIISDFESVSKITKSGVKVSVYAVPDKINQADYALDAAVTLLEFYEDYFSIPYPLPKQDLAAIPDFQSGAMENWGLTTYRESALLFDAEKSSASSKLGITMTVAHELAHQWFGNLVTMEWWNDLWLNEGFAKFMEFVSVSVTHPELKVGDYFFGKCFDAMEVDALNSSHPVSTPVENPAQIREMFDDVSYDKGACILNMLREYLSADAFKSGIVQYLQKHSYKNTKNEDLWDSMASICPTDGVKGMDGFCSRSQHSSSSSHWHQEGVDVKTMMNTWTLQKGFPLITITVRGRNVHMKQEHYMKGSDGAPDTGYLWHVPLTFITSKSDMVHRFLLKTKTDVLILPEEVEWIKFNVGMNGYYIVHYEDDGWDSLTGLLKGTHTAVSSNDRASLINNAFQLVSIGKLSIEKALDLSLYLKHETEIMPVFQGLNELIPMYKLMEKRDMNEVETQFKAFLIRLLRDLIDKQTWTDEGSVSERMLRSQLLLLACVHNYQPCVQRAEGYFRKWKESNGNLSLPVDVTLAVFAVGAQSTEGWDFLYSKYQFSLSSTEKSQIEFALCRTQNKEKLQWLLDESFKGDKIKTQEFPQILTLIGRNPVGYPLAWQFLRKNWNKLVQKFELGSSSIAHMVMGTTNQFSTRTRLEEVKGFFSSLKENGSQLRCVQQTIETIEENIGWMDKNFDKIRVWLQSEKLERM

[22] = Late stage assay provider results from the probe development effort to identify selective inhibitors of heat shock protein 90 (HSP90): Absorbance-based cell proliferation assay in MCF7 cells.; format: functional
[23] = Late stage assay provider results from the probe development effort to identify selective inhibitors of heat shock protein 90 (HSP90): Absorbance-based cell proliferation assay in SKBR3 cells.; format: functional; conditions: SK-BR-3
[24] = T. cruzi growth inhibition in host cells, dose response, cell-based, plate reader, dry powder, set 2 (AID 652275); format: functional
[25] = A549 cell cytotoxicity, dose response, cytotoxicity control, cherry-picks, 26 µM top dose (AID 1053119); format: functional, cell-based
[26] = HepG2 cell cytotoxicity, dose response, cytotoxicity control, cherry-picks, set 5 (AID 1053118); format: functional, cell-based
[27] = HEK293 cell cytotoxicity, dose response, cytotoxicity control, cherry-picks, set 5 (AID 1053117); format: functional, cell-based
[28] = Late stage assay provider results from the probe development effort to identify inhibitors of Protein Arginine Deaminase 4 (PAD4): cell-based absorbance-based assay to assess cytotoxicity of test compounds.; format: functional

CCCn1c(C)cc(C(=O)CN2C(=O)c3ccccc3S2(=O)=O)c1C
AC50 [1]: 3.24 µM (active) | AC50 (HEK293): 211 nM (active) | AC50 (Paired box protein Pax-8): 3.55 µM (active) | AC50 [2]: > 52 µM (inactive) | AC50 [3]: 4.42 µM (active) | AC50 [4]: 77.7 µM (active) | AC50 [5]: 798 nM (active) | AC50 [6]: 82.5 µM (active) | AC50 [7]: 81.2 µM (active) | AC50 [8]: 690 nM (active) | AC50 [9]: 26.8 µM (active) | AC50 [10]: 2.98 µM (active) | AC50 [11]: > 100 µM (inactive) | AC50 [12]: 55.7 µM (active) | AC50 [13]: 9.79 µM (active)

Cc1cccc(-c2cc(N3CCCN(C)CC3)n3nccc3n2)c1
AC50 [14]: 2.45 µM (active) | AC50 (Protein S100-A4): 7.12 µM (active) | AC50 [15]: 24 µM (active)

COc1cccc(C#Cc2ccc([C@@H]3[C@H](C#N)N(C(=O)c4ccccn4)[C@H]3CO)cc2)c1
AC50 [1]: > 70 µM (inactive) | AC50 (Paired box protein Pax-8): 11.9 µM (active) | AC50 [16]: 63.7 µM (active) | AC50 [3]: > 70 µM (inactive) | AbsAC35 [17]: 55.61 µM | AbsAC35 [18]: 296.86 µM | AC50 [11]: > 70 µM (inactive) | AC50 [19]: 12.7 µM (active) | AC50 [12]: 35.1 µM (active)

COc1ccc(C#Cc2ccc(C(=O)N3CCCC(C)(O)C3)cc2)cc1 (stereo unspecified)
pIC50 [20]: 6.28

CCC(=O)N1[C@@H]2c3ccc(/C=C/c4ccccc4)c(=O)n3C[C@H]1[C@H](CO)[C@H]2C(=O)N(C)C
AC50 [21]: 9.44 µM (active)

COC(=O)c1cccc(COc2ccc3cc(Br)c(=O)oc3c2)c1
IC50 [22]: > 100 µM (inactive) | IC50 [23]: > 100 µM (inactive)

CC(C)N1CC2(CN(Cc3ccc(-c4ccccc4)cc3)C2)Oc2c(NC(=O)c3ccncc3)cccc2C1=O
AC50 [24]: 1.31 nM (active)

C[C@H](CO)N1C[C@H](C)[C@@H](CN(C)C(=O)Nc2cccc3ccccc23)Oc2c(NC(=O)Nc3ccc(C(F)(F)F)cc3)cccc2C1=O
AC50 [25]: > 52 µM (inactive) | AC50 [26]: 34.4 µM (active) | AC50 [27]: > 52 µM (inactive)

NC1=CC(=O)c2ccc(-c3cccc(C(=O)O)n3)nc2C1=O
CC50 [28]: 26.5 µM (inactive)
